Measured values as given in patent US11872222B2, “Uses” (NeRRe Therapeutics Limited, priority 2020, dated 2024).

Assays:
[1] = test system: VILI mouse model of mechanical injury to the lungs; test: VILI mouse model: flow cytometric analyses of lung cell suspensions (leukocyte numbers, ICAM-1 surface expression); format: in vivo; conditions: male C57/BL6 mice, oral 250 mg/kg pre-treatment, high tidal volume ventilation, flow cytometry, FIG. 2
Procedure: Orvepitant was evaluated in a VILI mouse model of mechanical injury to the lungs. Male C57/BL6 mice were pre-treated with oral orvepitant (250 mg/kg) or vehicle control (10 ml/kg, 0.1% tween 80:0.5% hydroxypropyl methylcellulose [HPMC]), approximately 30 minutes before initiation of experimental ventilation. Mice were anesthetized and tracheotomised for ventilation. The left carotid artery was cannulated to monitor blood pressure (BP), infuse heparinised saline (0.4 ml/hr of 10 units/ml of heparin), and measure sequential blood gas analyses. Airway pressure was monitored continuously, while respiratory mechanics including respiratory resistance (Rrs) and elastance (Ers), were measured at predetermined intervals by end-inflation occlusion. Vehicle-treated or orvepitant-treated animals were ventilated with high tidal volume (33-37 ml/kg) for up to 150 minutes or until a mortality surrogate (increase of >25% peak inspiratory pressure) was reached. As a control group, vehicle-treated animals only were ventilated with low tidal volume (8-9 ml/kg) to confirm the impact of injurious ventilation. Following termination, bronchoalveolar lavage fluid (BAL) was collected for analysis and lungs were processed for flow cytometric evaluation of leukocyte numbers and expression of ICAM-1 on alveolar macrophages and epithelial cells. Data were evaluated for normality by Shapiro-Wilk test of residuals and QQ plots. Normally distributed data were evaluated by t-test for end-point analysis, or 2-way ANOVA for time courses. Non-normally distributed data were evaluated by Mann-Whitney U test. N=6-7 animals for each dataset. Flow cytometric analyses. Lung cell suspensions were evaluated for quantification of neutrophils and Ly6C high inflammatory (Ly6CN) monocytes by flow cytometry. […] Activation of alveolar macrophages and type 1 and type 2 epithelial cells was determined by assaying for surface expression of ICAM-1.

[2] = test system: VILI mouse model of mechanical injury to the lungs; test: VILI mouse model: bronchoalveolar lavage fluid (BAL) markers; format: in vivo; conditions: male C57/BL6 mice, oral 250 mg/kg pre-treatment, high tidal volume ventilation; FIG. 3
Procedure: Orvepitant was evaluated in a VILI mouse model of mechanical injury to the lungs. Male C57/BL6 mice were pre-treated with oral orvepitant (250 mg/kg) or vehicle control (10 ml/kg, 0.1% tween 80:0.5% hydroxypropyl methylcellulose [HPMC]), approximately 30 minutes before initiation of experimental ventilation. Mice were anesthetized and tracheotomised for ventilation. The left carotid artery was cannulated to monitor blood pressure (BP), infuse heparinised saline (0.4 ml/hr of 10 units/ml of heparin), and measure sequential blood gas analyses. Airway pressure was monitored continuously, while respiratory mechanics including respiratory resistance (Rrs) and elastance (Ers), were measured at predetermined intervals by end-inflation occlusion. Vehicle-treated or orvepitant-treated animals were ventilated with high tidal volume (33-37 ml/kg) for up to 150 minutes or until a mortality surrogate (increase of >25% peak inspiratory pressure) was reached. As a control group, vehicle-treated animals only were ventilated with low tidal volume (8-9 ml/kg) to confirm the impact of injurious ventilation. Following termination, bronchoalveolar lavage fluid (BAL) was collected for analysis and lungs were processed for flow cytometric evaluation of leukocyte numbers and expression of ICAM-1 on alveolar macrophages and epithelial cells. Data were evaluated for normality by Shapiro-Wilk test of residuals and QQ plots. Normally distributed data were evaluated by t-test for end-point analysis, or 2-way ANOVA for time courses. Non-normally distributed data were evaluated by Mann-Whitney U test. N=6-7 animals for each dataset. Bronchoalveolar lavage fluid (BAL) markers. BAL total protein concentration was measured as a marker of alveolar-epithelial barrier permeability.

[3] = test system: VILI mouse model of mechanical injury to the lungs; test: VILI mouse model: physiological variables (peak inspiratory pressure, elastance); format: in vivo, mice
Procedure: Orvepitant was evaluated in a VILI mouse model of mechanical injury to the lungs.
Male C57/BL6 mice were pre-treated with oral orvepitant (250 mg/kg) or vehicle control (10 ml/kg, 0.1% tween 80:0.5% hydroxypropyl methylcellulose [HPMC]), approximately 30 minutes before initiation of experimental ventilation.
Mice were anesthetized and tracheotomised for ventilation. The left carotid artery was cannulated to monitor blood pressure (BP), infuse heparinised saline (0.4 ml/hr of 10 units/ml of heparin), and measure sequential blood gas analyses. Airway pressure was monitored continuously, while respiratory mechanics including respiratory resistance (Rrs) and elastance (Ers), were measured at predetermined intervals by end-inflation occlusion. Vehicle-treated or orvepitant-treated animals were ventilated with high tidal volume (33-37 ml/kg) for up to 150 minutes or until a mortality surrogate (increase of >25% peak inspiratory pressure) was reached. As a control group, vehicle-treated animals only were ventilated with low tidal volume (8-9 ml/kg) to confirm the impact of injurious ventilation. Following termination, bronchoalveolar lavage fluid (BAL) was collected for analysis and lungs were processed for flow cytometric evaluation of leukocyte numbers and expression of ICAM-1 on alveolar macrophages and epithelial cells.
Data were evaluated for normality by Shapiro-Wilk test of residuals and QQ plots. Normally distributed data were evaluated by t-test for end-point analysis, or 2-way ANOVA for time courses. Non-normally distributed data were evaluated by Mann-Whitney U test. N=6-7 animals for each dataset.

Q: Which “Ly6C high inflammatory monocyte numbers within lung tissue” value ([1]; vs vehicle) does the source give for `Cc1cc(F)ccc1[C@H]1C[C@@H](N2CCN3C(=O)CC[C@H]3C2)CCN1C(=O)N(C)[C@H](C)c1cc(C(F)(F)F)cc(C(F)(F)F)c1` [orvepitant] here?
A: The value was “significant decrease”.

Q: What about the “Neutrophil numbers within lung tissue” value ([1]; vs vehicle) of the same molecule?
A: Its value is “significant decrease”.

Q: What about the “Upregulation of ICAM-1 surface expression on alveolar macrophages” value [1] of the same molecule?
A: Its value is “significantly attenuated”.

Q: What about the “Upregulation of ICAM-1 surface expression on type 1 epithelial cells” value [1] of the same molecule?
A: Its value is “significantly attenuated”.

Q: And the “Upregulation of ICAM-1 surface expression on type 2 epithelial cells” value [1]?
A: The value was “significantly attenuated”.

Q: And the “Increase in BAL IL-6” value [2]?
A: The value was “significantly attenuated”.

Q: What about the “Increase in BAL MCP-1 [CCL-2]” value [2] of the same molecule?
A: The value was “significantly attenuated”.

Q: And the “Increase in BAL TGF-β” value [2]?
A: The value was “significantly attenuated”.

Q: And the “Increase in BAL total protein concentration (marker of alveolar-epithelial barrier permeability)” value [2]?
A: The value was “significantly attenuated”.

Q: What about the “Peak inspiratory pressure at the start of ventilation” value ([3]; male C57/BL6 mice, oral 250 mg/kg approx. 30 min before ventilation, vs vehicle) of the same molecule?
A: Its value is “identical between vehicle and orvepitant pre-treated animals”.

Q: What about the “Course of peak inspiratory pressure change over time” value ([3]; male C57/BL6 mice, oral 250 mg/kg pre-treatment, high tidal volume (33-37 ml/kg) ventilation up to 150 min, vs vehicle, FIG. 1) of the same molecule?
A: Its value is “significantly different between groups”.

Q: What about the “'End' peak inspiratory pressure (final value recorded)” value ([3]; male C57/BL6 mice, oral 250 mg/kg pre-treatment, high tidal volume ventilation, 150 min or mortality surrogate, vs vehicle, FIG. 1) of the same molecule?
A: The value was “significantly higher in vehicle-treated animals than those receiving orvepitant”.

Q: What about the “Changes in respiratory system elastance over time” value ([3]; male C57/BL6 mice, oral 250 mg/kg pre-treatment, high tidal volume ventilation, vs vehicle, FIG. 1) of the same molecule?
A: The value was “differences between groups did not quite achieve statistical significance”.

Q: And the “Mechanical lung injury induced by mechanical ventilation (overall conclusion)” value ([3]; mice, oral pretreatment)?
A: The value was “substantial, significant attenuation”.
